Results taken from patent publication US11440923B2, “Substituted macrocyclic indole derivatives” (Bayer Aktiengesellschaft, priority 2017, dated 2022).
Read-outs that look alike come from different tables or passages of the source.

Legend:
SUDHL10 cells [1] = test: Induction of cytotoxicity in SUDHL10 cells (Assay 6); assay type: cell-based
Method in brief: (§1)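 Run alongside apoptosis measurements, this cytotoxicity readout used cells treated with compound for 5 h at 37 °C and quantified ATP-based luminescence with CellTiter-Glo.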

SUDHL5 cells [2] = test: Induction of cytotoxicity in SUDHL5 cells (Assay 6); assay type: cell-based
Method in brief: as §1

SUDHL5 cells [3] = test: Antiproliferation assay SUDHL5 (Assay 7); assay type: cell-based; conditions: 72 h, CellTiter-Glo, read-out: Antiproli SUDHL5 IC50 (median)
Method in brief: (§2)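 Cells are plated alongside a time-zero reference plate and held overnight at 37 °C. Treated plates are incubated 72 h, then ATP-based luminescence (CellTiter-Glo) is read. IC50 uses day 0 as baseline and DMSO as untreated control.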

SUDHL10 cells [4] = test: Induction of caspase-3/7 activity in SUDHL10 cells (Assay 4); assay type: cell-based; conditions: caspase-3/7 induction, 3 h, read-out: Caspase SUDHL10 EC50 (median)
Method in brief: (§3)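 Read-out: Caspase-Glo 3/7 luminescence (1 h, 37 °C) after cells, plated overnight, were treated with compounds for 3 h at 37 °C. Signal corrected for cell-free medium background and expressed relative to DMSO control mean.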

MCL-1 = MCL-1 (Homo sapiens (Human), UniProt Q07820, K194A/K197A/R201A); test: Protein-protein interaction assay MCL-1/Noxa BH3 peptide (MCL-1 assay, TR-FRET); assay type: binding
MCL-1, sequence (Q07820 whole entry, looked up, stated change not applied, the tested form may be a part): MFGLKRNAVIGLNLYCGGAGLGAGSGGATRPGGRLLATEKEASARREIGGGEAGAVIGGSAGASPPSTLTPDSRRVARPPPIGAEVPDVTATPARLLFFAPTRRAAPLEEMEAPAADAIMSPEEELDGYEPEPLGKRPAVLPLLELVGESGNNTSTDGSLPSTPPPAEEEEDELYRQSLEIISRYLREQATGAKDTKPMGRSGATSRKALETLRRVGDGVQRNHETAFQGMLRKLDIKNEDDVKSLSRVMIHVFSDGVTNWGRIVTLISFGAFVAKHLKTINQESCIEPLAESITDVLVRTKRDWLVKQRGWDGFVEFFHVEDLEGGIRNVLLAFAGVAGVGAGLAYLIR
Method: The dose-dependent inhibition by the compounds described in this invention of the interaction between MCL-1 and the BH3 domain of Noxa (both human) was determined using a steady state binding competition assay with time-resolved fluorescence energy transfer (TR-FRET) readout. For that purpose MCL-1 (amino acids 173-321, N-terminal fused to Maltose Binding Protein (MBP) SEQ ID 1)) and a synthetic Noxa BH3-derived peptide of sequence Biotin-PEG2-PEG2-PAELEVE-Nva-[…]-amide (SEQ ID 2) served as protein receptor and tracer ligand respectively. The MBP-MCL-1 was purchased from Beryllium (Bedford, Mass., USA). The expression and purification of this protein construct has been described elsewhere (DOI:10.1371/journal.pone.0125010). The Noxa BH3-derived peptide can be obtained from e.g. Biosyntan (Berlin, Germany).
For that, 100-fold concentrated DMSO solutions were prepared by serial dilutions (1:3.4) of a 2 mM stock solution in a clear, 384-well microtiter plate (Greiner Bio-One, Frickenhausen, Germany). From there, 50 nl were transferred in a dark test plate (Greiner Bio-One, Frickenhausen, Germany). The assay was initiated by addition of 2 μL of a 2,5-fold concentrated MBP-MCL-1 solution (usually for a 1 nM end concentration in 5 μL reaction volume) in aqueous assay buffer [50 mM Tris/HCl pH 7, 100 mM sodium chloride (NaCl), 50 mM potassium fluoride (KF), 0.005% Tween-20, 2 mM DTT, 0.1% bovine gamma globulin (BGG)] to the compounds in the assay plate. This was followed by a 10-minute incubation step at 22° C. for pre-equilibration of the putative complex between MBP-MCL-1 and the compounds.
The mixture was incubated in the dark for one hour at 22° C. and then overnight at 4° C. The formation of MCL-1/Noxa complexes was determined by measuring the resonance energy transfer of the anti-MBP-Eu-cryptate antibody to the streptavidin-XL665 present in the reaction.
For that purpose, the fluorescence emission at 620 nm and 665 nm after excitation at 330-350 nm was measured in a TR-FRET measuring instrument, for instance a Rubystar or a Pherastar (both from BMG Lab Technologies, Offenburg, Germany) or a Viewlux (Perkin-Elmer). The ratio of the emission at 665 nm and at 622 nm was used as indicator of the amount of MCL-1/NOXA complexes present.
The resulting data (ratio) were normalized, taking 0% inhibition as the mean value of control measurements (usually 32 data points) where all reagents were included. In this case 50 nl DMSO were used instead of compounds. […] IC50 values were determined by regression analysis based on a 4 parameter equation (minimum, maximum, IC50, Hill; Y=Max+(Min−Max)/(1+(X/IC50)^Hill) using the Screener Software (Genedata).

SUDHL5 cells [5] = test: Induction of caspase-3/7 activity in SUDHL5 cells (Assay 4); assay type: cell-based; conditions: caspase-3/7 induction, 3 h, read-out: Caspase SUDHL5 EC50 (median)
Method in brief: as §3

HMC-1-8 cells = test: Antiproliferation assay HMC-1-8 (Assay 7); assay type: cell-based
Method in brief: as §2

AMO-1 cells = test: Antiproliferation assay AMO-1 (Assay 7); assay type: cell-based; conditions: 72 h, CellTiter-Glo, read-out: Antiproli AMO-1 IC50 median
Method in brief: as §2

[6] = 5 h, CellTiter-Glo, read-out: Cytotox SUDHL10 IC50 (median)
[7] = 5 h, CellTiter-Glo, read-out: Cytotox SUDHL5 IC50 (median)
[8] = 72 h, CellTiter-Glo; read-out: Antiproli HMC-1-8 IC50 median
[9] = Homo sapiens, SU-DHL10, 5 h, 5 h, CellTiter-Glo, read-out: Cytotox SUDHL10 IC50 (median)
[10] = Homo sapiens, SU-DHL-5, 5 h, 5 h, CellTiter-Glo, read-out: Cytotox SUDHL5 IC50 (median)
[11] = read-out: MCL-1 Assay IC50 (median)
[12] = 72 h, CellTiter-Glo, read-out: Antiproli HMC-1-8 IC50 median

Compound	IC50 (SUDHL5 cells [3])	EC50 (SUDHL10 cells [4])	IC50 (MCL-1; MCL-1 Assay IC50 (median))	EC50 (SUDHL5 cells [5])	IC50 (SUDHL5 cells [3]; Homo sapiens, SU-DHL-5, 72 h)	EC50 (SUDHL5 cells [5]; Homo sapiens, SU-DHL-5, 3 h)	EC50 (SUDHL10 cells [4]; Homo sapiens, SU-DHL10, 3 h)	IC50 (MCL-1; [11])	IC50 (SUDHL10 cells [1]; [6])	IC50 (SUDHL5 cells [2]; [7])	IC50 (HMC-1-8 cells; [8])	IC50 (AMO-1 cells)	IC50 (SUDHL10 cells [1]; [9])	IC50 (SUDHL5 cells [2]; [10])	IC50 (HMC-1-8 cells; [12])	IC50 (AMO-1 cells; Homo sapiens, AMO1, 72 h)	IC50 (SUDHL10 cells [1])	IC50 (SUDHL5 cells [2])
Cc1c2c(nn1C)C(CCN1CCOCC1)OCCCCn1c(C(=O)O)c(CCCOc3cccc4ccccc34)c3cccc-2c31 (single isomer, unassigned; stereoisomer 1) [Example 5, 2,3-dimethyl-15-[2-(morpholin-4-yl)ethyl]-7-[3-(naphthalen-1-yloxy)propyl]-2,10,11,12,13,15-hexahydropyrazolo[4′,3′:9,10][1,6]oxazacycloundecino[8,7,6-hi]indole-8-carboxylic Acid (Stereoisomer 1)]	440 nM	520 nM	1.2 nM	300 nM					490 nM	340 nM								
CCc1c2c(nn1C)C(CCCN1CCOCC1)OCCCCn1c(C(=O)O)c(CCCOc3cccc4cc(F)ccc34)c3ccc(Cl)c-2c31 (single isomer, unassigned; enantiomer 2) [Example 67, (−)-4-chloro-3-ethyl-7-{3-[(6-fluoronaphthalen-1-yl)oxy]propyl}-2-methyl-15-[3-(morpholin-4-yl)propyl]-2,10,11,12,13,15-hexahydropyrazolo[4′,3′:9,10][1,6]oxazacycloundecino[8,7,6-hi]indole-8-carboxylic Acid (Enantiomer 2)]	2100 nM	4400 nM	7.8 nM	1600 nM					4900 nM	2600 nM	> 33000 nM	633 nM						
Cc1c2c(nn1C)C(CCN1CCOCC1)OCCCCn1c(C(=O)O)c(CCCOc3cccc4ccccc34)c3cccc-2c31 (racemic) [Example 4, (rac)-2,3-dimethyl-15-[2-(morpholin-4-yl)ethyl]-7-[3-(naphthalen-1-yloxy)propyl]-2,10,11,12,13,15-hexahydropyrazolo[4′,3′:9,10][1,6]oxazacycloundecino[8,7,6-hi]indole-8-carboxylic Acid (Mixture of Stereoisomers)]			1.1 nM		500 nM	520 nM	990 nM						1100 nM	550 nM				
CCc1c2c(nn1C)C(CCC1CCOCC1)N(C)CCCCn1c(C(=O)O)c(CCCOc3cccc4cc(F)ccc34)c3ccc(Cl)c-2c31 (centres unmarked) [Example 101, 4-chloro-3-ethyl-7-{3-[(6-fluoro-1-naphthyl)oxy]propyl}-2,14-dimethyl-15-[2-(tetrahydro-2H-pyran-4-yl)ethyl]-10,11,12,13,14,15-hexahydro-2H-pyrazolo[3′,4′:8,9][1,6]diazacycloundecino[10,11,1-hi]indole-8-carboxylic Acid]	110 nM	51 nM		69 nM				1.8 nM			1490 nM	95.8 nM					71 nM	140 nM
CCc1c2c(nn1C)C(CCN(C)OC)OCCCCn1c(C(=O)O)c(CCCOc3cccc4cc(F)ccc34)c3ccc(Cl)c-2c31 (racemic) [Example 80, (rac)-4-chloro-3-ethyl-7-{3-[(6-fluoronaphthalen-1-yl)oxy]propyl}-(15-rac)-{2-[methoxy(methyl)amino]ethyl}-2-methyl-2,10,11,12,13,15-hexahydropyrazolo[4′,3′:9,10][1,6]oxazacycloundecino[8,7,6-hi]indole-8-carboxylic Acid]			3.5 nM		170 nM	140 nM	130 nM						250 nM	150 nM	1590 nM	47.4 nM		

More lines, main results first:

IC50 (SUDHL5 cells [3])	EC50 (SUDHL10 cells [4])	IC50 (MCL-1; MCL-1 Assay IC50 (median))	EC50 (SUDHL5 cells [5])	IC50 (SUDHL5 cells [3]; Homo sapiens, SU-DHL-5, 72 h)	EC50 (SUDHL5 cells [5]; Homo sapiens, SU-DHL-5, 3 h)	EC50 (SUDHL10 cells [4]; Homo sapiens, SU-DHL10, 3 h)	IC50 (MCL-1; [11])	Compound	IC50 (SUDHL10 cells [1]; [6])	IC50 (SUDHL5 cells [2]; [7])	IC50 (HMC-1-8 cells; [8])	IC50 (AMO-1 cells)	IC50 (SUDHL10 cells [1]; [9])	IC50 (SUDHL5 cells [2]; [10])	IC50 (HMC-1-8 cells; [12])	IC50 (AMO-1 cells; Homo sapiens, AMO1, 72 h)	IC50 (SUDHL10 cells [1])	IC50 (SUDHL5 cells [2])
1100 nM	1200 nM	1.1 nM	540 nM					CCc1c2c(nn1C)C1CCCN1CCCCn1c(C(=O)O)c(CCCOc3cccc4cc(F)ccc34)c3ccc(Cl)c-2c31 (racemic) [Example 107, (rac)-17-chloro-1-ethyl-14-{3-[(6-fluoronaphthalen-1-yl)oxy]propyl}-2-methyl-3b,4,5,6,8,9,10,11-octahydro-2H-pyrazolo[3′,4′:8,9]pyrrolo[1′,2′:6,7][1,6]diazacycloundecino[10,11,1-hi]indole-13-carboxylic Acid]	890 nM	690 nM	6640 nM	1340 nM						
	360 nM	0.88 nM		550 nM	330 nM			CCc1c2c(nn1C)C1CCCN1CCCCn1c(C(=O)O)c(CCCOc3cccc4cc(F)ccc34)c3ccc(Cl)c-2c31 (racemic) [Example 104, (rac)-17-chloro-1-ethyl-14-{3-[(6-fluoronaphthalen-1-yl)oxy]propyl}-2-methyl-3b,4,5,6,8,9,10,11-octahydro-2H-pyrazolo[3′,4′:8,9]pyrrolo[1′,2′:6,7][1,6]diazacycloundecino[10,11,1-hi]indole-13-carboxylic Acid]	430 nM	340 nM	2630 nM	543 nM						
2100 nM	4800 nM		2700 nM				17 nM	CCc1c2c(nn1C)C1CCCN1CCCCn1c(C(=O)O)c(CCCOc3cccc4cc(F)ccc34)c3ccc(Cl)c-2c31 (single isomer, unassigned; (-)) [Example 106, (−)-17-chloro-1-ethyl-14-{3-[(6-fluoronaphthalen-1-yl)oxy]propyl}-2-methyl-3b,4,5,6,8,9,10,11-octahydro-2H-pyrazolo[3′,4′:8,9]pyrrolo[1′,2′:6,7][1,6]diazacycloundecino[10,11,1-hi]indole-13-carboxylic Acid]	5700 nM	3700 nM	20600 nM	4450 nM						
		1.2 nM		70 nM	66 nM	67 nM		CCc1c2c(nn1C)C(CCN1CC(F)C1)OCCCCn1c(C(=O)O)c(CCCOc3cccc4cc(F)ccc34)c3ccc(Cl)c-2c31 (racemic) [Example 108, (rac)-4-chloro-3-ethyl-15-[2-(rac)-(3-fluoroazetidin-1-yl)ethyl]-7-{3-[(6-fluoronaphthalen-1-yl)oxy]propyl}-2-methyl-2,10,11,12,13,15-hexahydropyrazolo[4′,3′:9,10][1,6]oxazacycloundecino[8,7,6-hi]indole-8-carboxylic Acid]					130 nM	84 nM	1870 nM	51.8 nM		
